In patent US20110165266A1 (priority 2008, published 2011):
Read-outs that look alike come from different tables or passages of the source.

Assays:
aryl sulfotransferases = settings: cited from earlier work
[1] = test system: VSV-G pseudotyped MLV vector (MMP-nls-lacZ[VSV-G]); format: cell-based, murine leukemia virus (MLV)
[2] = test system: MLV vector pMMp-nls-LacZ[VSV-G]; format: cell-based, murine leukemia virus (MLV)
[3] = test system: MLV vector pMMp-nls-LacZ[VSV-G]; format: cell-based, murine leukemia virus (MLV); remark: listed apart in the source
[4] = test system: resident (pCMMP-SEAP) and newly acquired (MMP-nls-lacZ[VSV-G]) MLV proviruses; format: cell-based, murine leukemia virus (MLV)
[5] = test system: VSV-G pseudotyped MLV vector (pLEGFP); format: cell-based, murine leukemia virus (MLV)
[6] = test system: MLV LTR-driven mRNA transcription (pCMMP-EGFP); format: cell-based, murine leukemia virus (MLV)
[7] = test system: VSV-G pseudotyped HIV-1 vector NL43E-R-Luc; format: cell-based
HIV [8] = assay: HIV infection in low versus high sulfate media; settings: FIG. 20B
HIV [9] = assay: HIV infection with suboptimal (20 mM) chlorate; settings: FIG. 21B

Structure (SMILES): Oc1cc(Cl)ccc1Oc1ccc(Cl)cc1Cl [trichlosan]
- quantities that interfere with aryl sulfotransferases (aryl sulfotransferases): μM

Structure (SMILES): [O-][Cl+2]([O-])O [chlorate]
- fold less blue cells as compared to untreated cells [1]: approximately 6.7 fold
- time of addition that had no effect on viral reporter gene expression [1]: ≥ 18 hpi
- time of addition that led to a reduction in subsequent viral reporter gene expression [1]: up to 16 hpi
- fold less susceptible to infection, by reporter gene expression [2]: approximately 9.3 fold
- additional reduction of MLV infection [3]: 2 fold
- effect on gene expression from newly acquired versus resident proviruses [4]: affected gene expression from the newly acquired, but not the resident proviruses
- influence on β-galactosidase expression from a resident MLV vector [4]: not to influence
- effect on accumulation of viral reverse transcription products [5]: no effect
- reduction of viral-derived transcript levels, normalized to β-actin [6]: 11 fold
- reduction in HIV LTR-driven reporter gene expression [7]: 10 fold

Structure (SMILES): COc1ccccc1O [guaiacol]
- fold less blue cells as compared to untreated cells [1]: ~3.4 fold
- quantities that interfere with aryl sulfotransferases (aryl sulfotransferases): mM
- reduction of viral-derived transcript levels, normalized to β-actin ([6]; CHO-K1 cells, 100 mM chlorate, 5 mM guaiacol or both, FIGS. 6D, 6E): 17 fold
- reduction in HIV LTR-driven reporter gene expression [7]: 8 fold

Structure (SMILES): Cc1cn([C@H]2C[C@H](N=[N+]=[N-])[C@@H](CO)O2)c(=O)[nH]c1=O [AZT]
- inhibition of HIV infection in low sulfate media versus high sulfate media (HIV [8]): unaffected by low sulfate conditions
- inhibition of HIV infection in media containing 20 mM chlorate versus standard media (HIV [9]): unaffected by 20 mM chlorate
